Data as given in patent US20050266105A1, “Compositions comprising natural agents for the treatment of HIV-associated opportunistic infections and complications and methods for preparing and using compositions comprising natural agents” (priority 2004, published 2005).
pIC50: −log10 of the molar value. Converted amounts (≈) assume the structure as drawn. Like-named read-outs stand apart in the source and are kept apart here.

Tests used:
MRSA = conditions: cited from earlier work
CEM-SS cells = assay: Compound cytotoxicity (cell viability in the absence of virus, MTS); type: cell-based; conditions: read-out: TC50 (the source's name)
Method: Similarly, compound cytotoxicity is measured as the % reduction in cell viability resulting from incubation of the compound with the cells (in the absence of virus). The greater the reduction in cell viability, the greater the cytotoxicity of the compound. […] Macroscopic observation of the cells in each well of the microtiter plate confirmed the cytotoxicity results obtained following staining of the cells with the MTS metabolic dye.

HIV-1RF = assay: HIV-1 cytoprotection assay; type: cell-based
Method: ICBG plant samples were tested using an HIV-1 cytoprotection assay. This assay is based on the premise that HIV-1RF is cytopathic and kills CEM-SS cells as it replicates in the culture. Compounds that inhibit HIV-1 replication are therefore able to reduce the amount of viral cytopathic effect that occurs in the culture. As a result, compound activity is measured by determining the amount of cell viability remaining in the cultures following the six day incubation period. The % reduction in viral cytopathic effect is a direct measure of compound activity. The greater the % reduction in viral cytopathic effect, the greater the antiviral activity of the compound. […] Macroscopic observation of the cells in each well of the microtiter plate confirmed the cytotoxicity results obtained following staining of the cells with the MTS metabolic dye.

CCn1cc(C(=O)O)c(=O)c2cc(F)c(N3CCNCC3)cc21 [Norfloxacin]
MIC (MRSA; MRSA strain 1199-B): 64 mg/L (≈ 200 µM)
MIC (MRSA; MRSA strain XU212): 8 mg/L (≈ 25.1 µM)

CC[C@H]1OC(=O)[C@H](C)[C@@H](O[C@H]2C[C@@](C)(OC)[C@@H](O)[C@H](C)O2)[C@H](C)[C@@H](O[C@@H]2O[C@H](C)C[C@H](N(C)C)[C@H]2O)[C@](C)(O)C[C@@H](C)C(=O)[C@H](C)[C@@H](O)[C@]1(C)O [Erythromycin]
MIC (MRSA; MRSA strain 1199-B): 2 mg/L (≈ 2.73 µM)
MIC (MRSA; MRSA strain XU212): 4096 mg/L (≈ 5580 µM)

Cc1cn([C@H]2C[C@H](N=[N+]=[N-])[C@@H](CO)O2)c(=O)[nH]c1=O [AZT]
CC50 (CEM-SS cells): > 0.5 µM
Antiviral activity (comments) (HIV-1RF; HIV-1RF in CEM-SS cells, at concentrations tested): expected level of antiviral activity
pIC50 (HIV-1RF; HIV-1RF in CEM-SS cells, six day incubation): > 8.70
AI (Antiviral Index) (HIV-1RF; TC50 / IC50): >320
